Measured values: article PMC7180572, “5-Alkylamino-N-phenylpyrazine-2-carboxamides: Design, Preparation, and Antimycobacterial Evaluation” (Molecules, 2020)
≈ marks a conversion by molar mass, not a printed value. Where “and” joins values, the source holds several entries; their conditions need not be identical. Equal values may be shown once. Read-outs that look alike come from different tables or passages of the source.

What was measured:
[1] = tested on: Mycobacterium tuberculosis H37Ra ITM-M006710 (ATCC 9431); experiment: Microdilution broth, modified Microplate Alamar Blue Assay, whole cell growth inhibition; type: cell-based; conditions: Mycobacterium tuberculosis, read-out: MIC Mtb H37Ra
[2] = tested on: Mycobacterium aurum DSM 43999 (ATCC 23366); experiment: as above; type: cell-based; conditions: Mycolicibacterium aurum, read-out: MIC Mycobacterium aurum
[3] = tested on: Mycobacterium smegmatis DSM 43465 (ATCC 607); experiment: as above; type: cell-based; conditions: Mycolicibacterium smegmatis, read-out: MIC Mycobacterium smegmatis
HepG2 cells = experiment: HepG2 cytotoxicity, CellTiter 96 (MTS) assay; type: cell-based, human; conditions: for IC50: Homo sapiens, read-out: HepG2 IC50; for SI, selectivity index: IC50 (HepG2)/MIC against Mtb H37Ra (in µM)
[4] = type: physicochemical
Method: As a complementary test, final compounds were tested for in vitro activity against selected fungal and bacterial pathogens of clinical importance. The microdilution broth method was performed according to The European Committee on Antimicrobial Susceptibility Testing (EUCAST) instructions with slight modifications. The minimum inhibitory concentration was expressed in µM. Not all compounds were evaluated due to the fact of a problem with solubility which occurred for 18 samples. […] See Supplementary Materials for the list of tested strains, methodology, and full results.

[5] = tested on: Staphylococcus aureus spp.aureus ATCC 29213, CCM 4223; experiment: Antibacterial microdilution broth method (EUCAST); type: cell-based; conditions: read-out: MIC SA
[6] = tested on: Staphylococcus aureus methicillin resistant ATCC 43300, CCM 4750; experiment: microbe, parasite or virus in culture; type: cell-based; conditions: ATCC 43300 / CCM 4750 / MRSA, read-out: MIC MRSA
[7] = tested on: Staphylococcus epidermidis ATCC 12228, CCM 4418; experiment: Antibacterial microdilution broth method (EUCAST); type: cell-based; conditions: read-out: MIC SE
[8] = tested on: Enterococcus faecalis ATCC 29212, CCM 4224; experiment: Antibacterial microdilution broth method (EUCAST); type: cell-based; conditions: read-out: MIC EF
[9] = tested on: Escherichia coli ATCC 25922, CCM 3954; experiment: Antibacterial microdilution broth method (EUCAST); type: cell-based; conditions: read-out: MIC EC
[10] = tested on: Acinetobacter baumanii ATCC 19606, DSM 30007; experiment: Antibacterial microdilution broth method (EUCAST); type: cell-based; conditions: Acinetobacter baumannii
[11] = tested on: Pseudomonas aeruginosa ATCC 27853, CCM 3955; experiment: Antibacterial microdilution broth method (EUCAST); type: cell-based; conditions: read-out: MIC PA
[12] = tested on: Candida albicans ATCC 24433, CCM 8320; experiment: Antifungal microdilution broth method (EUCAST); type: cell-based; conditions: read-out: MIC CA
[13] = tested on: Candida krusei ATCC 6258, CCM 8271; experiment: Antifungal microdilution broth method (EUCAST); type: cell-based; conditions: Pichia kudriavzevii, read-out: MIC CK
[14] = tested on: Candida parapsilosis ATCC 22019, CCM 8260; experiment: Antifungal microdilution broth method (EUCAST); type: cell-based; conditions: Lodderomyces parapsilosis, read-out: MIC CP
[15] = tested on: Candida tropicalis ATCC 750, CCM 8264; experiment: Antifungal microdilution broth method (EUCAST); type: cell-based; conditions: read-out: MIC CT
[16] = tested on: Aspergillus fumigatus ATCC 204305; experiment: Antifungal microdilution broth method (EUCAST); type: cell-based; conditions: read-out: MIC AF
[17] = tested on: Aspergillus flavus CCM 8363; experiment: Antifungal microdilution broth method (EUCAST); type: cell-based; conditions: read-out: MIC AFla
[18] = tested on: Absidia corymbifera CCM 8077 (Lichtheimia corymbifera); experiment: Antifungal microdilution broth method (EUCAST); type: cell-based; conditions: read-out: MIC AC
[19] = tested on: Trichophyton interdigitale ATCC 9533, CCM 8377; experiment: Antifungal microdilution broth method (EUCAST); type: cell-based; conditions: read-out: MIC TI
[20] = tested on: Klebsiella pneumoniae ATCC 10031, CCM 4415; experiment: Antibacterial microdilution broth method (EUCAST)
[21] = in vitro, Middlebrook 7H9 broth, resazurin
[22] = HepG2, 24 h incubation, > means higher concentration not reproducible due to precipitation

CCCCCNc1cnc(C(=O)Nc2cccc(O)c2)cn1 [Compound 2c, N-(3-hydroxyphenyl)-5-(pentylamino)pyrazine-2-carboxamide]
MIC [1, 21]: ≥ 500 µg/mL | MIC [2, 21]: ≥ 500 µg/mL | MIC [3, 21]: ≥ 500 µg/mL | IC50 (HepG2 cells; [22]): > 10 µM | Solubility problem in antibacterial/antifungal testing [4]: precipitated in both growth media | melting point: 224.8 to 226.1 °C

CCCCCCNc1cnc(C(=O)Nc2cccc(O)c2)cn1 [Compound 2d, 5-(Hexylamino)pyrazine-N-(3-hydroxyphenyl)-2-carboxamide]
MIC [1, 21]: ≥ 500 µg/mL | MIC [2, 21]: ≥ 500 µg/mL | MIC [3, 21]: ≥ 500 µg/mL | IC50 (HepG2 cells; [22]): > 10 µM | Solubility problem in antibacterial/antifungal testing [4]: precipitated in both growth media | melting point: 225 to 226 °C

CCCCCCCNc1cnc(C(=O)Nc2cccc(O)c2)cn1 [Compound 2e, 5-(Heptylamino)pyrazine-N-(3-hydroxyphenyl)-2-carboxamide]
MIC [1, 21]: ≥ 500 µg/mL | MIC [2, 21]: ≥ 500 µg/mL | MIC [3, 21]: 250 µg/mL (≈ 761 µM) | IC50 (HepG2 cells; [22]): > 10 µM | Solubility problem in antibacterial/antifungal testing [4]: precipitated in both growth media | melting point: 222 to 223 °C

CCCNc1cnc(C(=O)Nc2ccc(C)cc2)cn1 [Compound 4a, 5-(Propylamino)-N-(p-tolyl)pyrazine-2-carboxamide]
MIC [1, 21]: 15.6 µg/mL | MIC [2, 21]: ≥ 500 µg/mL | MIC [3, 21]: 31.2 µg/mL (≈ 116 µM) | IC50 (HepG2 cells; [22]): > 100 µM | SI, selectivity index (HepG2 cells): >1.73 | Solubility problem in antibacterial/antifungal testing [4]: precipitated in both growth media | melting point: 168 to 169 °C

CCCNc1cnc(C(=O)Nc2ccc(CC)cc2)cn1 [Compound 5a, N-(4-ethylphenyl)-5-(propylamino)pyrazine-2-carboxamide]
MIC ([1]; MIC converted to µM): 27.5 µM | MIC [1, 21]: 7.81 µg/mL | MIC [2]: ≥ 500 µg/mL | MIC [3]: 7.81 µg/mL (≈ 27.5 µM) | IC50 (HepG2 cells; HepG2, 24 h): 495 µM | SI, selectivity index (HepG2 cells): 18 and 18.01 | MIC ([5]; 24 h): > 125 µM | MIC ([5]; 48 h): > 125 µM | MIC ([6]; 24 h): > 125 µM | MIC ([6]; 48 h): > 125 µM | MIC ([7]; 24 h): > 125 µM | MIC ([7]; 48 h): > 125 µM | MIC ([8]; 24 h): > 125 µM | MIC ([8]; 48 h): > 125 µM | MIC ([9]; 24 h): > 125 µM | MIC ([9]; 48 h): > 125 µM | MIC ([10]; 24h): > 125 µM | MIC ([10]; 48h): > 125 µM | MIC ([11]; 72 h): > 125 µM | MIC ([11]; 120 h): > 125 µM | MIC ([12]; 24 h): > 125 µM | MIC ([12]; 48 h): > 125 µM | MIC ([13]; 24 h): > 125 µM | MIC ([13]; 48 h): > 125 µM | MIC ([14]; 24 h): > 125 µM | MIC ([14]; 48 h): > 125 µM | MIC ([15]; 24 h): > 125 µM | MIC ([15]; 48 h): > 125 µM | MIC ([16]; ATCC204305, 24 h): > 125 µM | MIC ([16]; ATCC204305, 48 h): > 125 µM | MIC ([17]; CCM8363, 24 h): > 125 µM | MIC ([17]; CCM8363, 48 h): > 125 µM | MIC ([18]; CCM8077, 24 h): > 125 µM | MIC ([18]; CCM8077, 48 h): > 125 µM | MIC ([19]; 72 h): > 125 µM | MIC ([19]; 120 h): > 125 µM | melting point: 141.8 to 142.8 °C | MIC KP ([20]; 24h): > 125 µM | MIC KP ([20]; 48h): > 125 µM

CCCCCCNc1cnc(C(=O)Nc2ccc(CC)cc2)cn1 [Compound 5d, N-(4-ethylphenyl)-5-(hexylamino)pyrazine-2-carboxamide]
MIC [1, 21]: ≥ 500 µg/mL | MIC [2]: ≥ 500 µg/mL | MIC [3]: ≥ 500 µg/mL | IC50 (HepG2 cells; HepG2, 24 h): > 25 µM | MIC ([5]; 24 h): > 500 µM | MIC ([5]; 48 h): > 500 µM | MIC ([6]; 24 h): > 500 µM | MIC ([6]; 48 h): > 500 µM | MIC ([7]; 24 h): > 500 µM | MIC ([7]; 48 h): > 500 µM | MIC ([8]; 24 h): > 500 µM | MIC ([8]; 48 h): > 500 µM | MIC ([9]; 24 h): > 500 µM | MIC ([9]; 48 h): > 500 µM | MIC ([10]; 24h): > 500 µM | MIC ([10]; 48h): > 500 µM | MIC ([11]; 72 h): > 500 µM | MIC ([11]; 120 h): > 500 µM | MIC ([12]; 24 h): > 125 µM | MIC ([12]; 48 h): > 125 µM | MIC ([13]; 24 h): > 125 µM | MIC ([13]; 48 h): > 125 µM | MIC ([14]; 24 h): > 125 µM | MIC ([14]; 48 h): > 125 µM | MIC ([15]; 24 h): > 125 µM | MIC ([15]; 48 h): > 125 µM | MIC ([16]; ATCC204305, 24 h): > 125 µM | MIC ([16]; ATCC204305, 48 h): > 125 µM | MIC ([17]; CCM8363, 24 h): > 125 µM | MIC ([17]; CCM8363, 48 h): > 125 µM | MIC ([18]; CCM8077, 24 h): > 125 µM | MIC ([18]; CCM8077, 48 h): > 125 µM | MIC ([19]; 72 h): > 125 µM | MIC ([19]; 120 h): > 125 µM | melting point: 138 to 139 °C | MIC KP ([20]; 24h): > 500 µM | MIC KP ([20]; 48h): > 500 µM

CCCCCCCNc1cnc(C(=O)Nc2ccc(CC)cc2)cn1 [Compound 5e, N-(4-ethylphenyl)-5-(heptylamino)pyrazine-2-carboxamide]
MIC [1, 21]: ≥ 500 µg/mL | MIC [2]: ≥ 500 µg/mL | MIC [3]: ≥ 500 µg/mL | IC50 (HepG2 cells; HepG2, 24 h): > 25 µM | MIC ([5]; 24 h): > 500 µM | MIC ([5]; 48 h): > 500 µM | MIC ([6]; 24 h): > 500 µM | MIC ([6]; 48 h): > 500 µM | MIC ([7]; 24 h): > 500 µM | MIC ([7]; 48 h): > 500 µM | MIC ([8]; 24 h): > 500 µM | MIC ([8]; 48 h): > 500 µM | MIC ([9]; 24 h): > 500 µM | MIC ([9]; 48 h): > 500 µM | MIC ([10]; 24h): > 500 µM | MIC ([10]; 48h): > 500 µM | MIC ([11]; 72 h): > 500 µM | MIC ([11]; 120 h): > 500 µM | MIC ([12]; 24 h): > 125 µM | MIC ([12]; 48 h): > 125 µM | MIC ([13]; 24 h): > 125 µM | MIC ([13]; 48 h): > 125 µM | MIC ([14]; 24 h): > 125 µM | MIC ([14]; 48 h): > 125 µM | MIC ([15]; 24 h): > 125 µM | MIC ([15]; 48 h): > 125 µM | MIC ([16]; ATCC204305, 24 h): > 125 µM | MIC ([16]; ATCC204305, 48 h): > 125 µM | MIC ([17]; CCM8363, 24 h): > 125 µM | MIC ([17]; CCM8363, 48 h): > 125 µM | MIC ([18]; CCM8077, 24 h): > 125 µM | MIC ([18]; CCM8077, 48 h): > 125 µM | MIC ([19]; 72 h): > 125 µM | MIC ([19]; 120 h): > 125 µM | melting point: 131 to 132 °C | MIC KP ([20]; 24h): > 500 µM | MIC KP ([20]; 48h): > 500 µM
